Laboratory results published in PMC9609971, “Benzimidazole Bearing Thiosemicarbazone Derivatives Act as Potent α-Amylase and α-Glucosidase Inhibitors; Synthesis, Bioactivity Screening and Molecular Docking Study” (Molecules, 2022).

Key:
[1] = biological target: crude intestinal α-glucosidase; assay: In vitro α-glucosidase activity assay (p-nitrophenyl-α-D-glucopyranoside substrate); type: biochemical; settings: triplicate; ± SEM
Experimental: The α-Glucosidase activity was determined by a slight modification to the already-reported method. In a 96-well microplate, 10 μL of test samples (5 mg/mL DMSO solution) were reconstituted in 100 μL of 100 mM-phosphate buffer (pH 6.8) and incubated with 50 μL of crude intestinal α-glucosidase for 5 min before 50 μL substrate (5 mM, p-nitrophenyl-α-D-glucopyranoside prepared in the same buffer) was added. The release of p-nitrophenol was measured at 405 nm spectrophotometrically for 5 min after incubation with the substrate. Individual blanks for test samples were prepared to correct background absorbance where the substrate was replaced with 50 μL of the buffer. The control sample contained 10 μL DMSO in place of the test samples. All reactions were carried out in triplicate.
The percentage of enzyme inhibition was calculated as (1 − B/A) × 100.
Where A represents the absorbance of control without test samples, and B represents absorbance in the presence of test samples.

[2] = biological target: T1, Porcine pancreatic α-amylase (Sus scrofa, UniProt P00690); assay: In vitro α-amylase activity assay (starch/dinitrosalicylic acid); type: biochemical; settings: triplicate; ± SEM
T1 construct: α-amylase solution (Porcine pancreatic α-amylase); from tissue; host or cells: porcine pancreas (from the enzyme's name only)
T1 sequence (P00690 16-511): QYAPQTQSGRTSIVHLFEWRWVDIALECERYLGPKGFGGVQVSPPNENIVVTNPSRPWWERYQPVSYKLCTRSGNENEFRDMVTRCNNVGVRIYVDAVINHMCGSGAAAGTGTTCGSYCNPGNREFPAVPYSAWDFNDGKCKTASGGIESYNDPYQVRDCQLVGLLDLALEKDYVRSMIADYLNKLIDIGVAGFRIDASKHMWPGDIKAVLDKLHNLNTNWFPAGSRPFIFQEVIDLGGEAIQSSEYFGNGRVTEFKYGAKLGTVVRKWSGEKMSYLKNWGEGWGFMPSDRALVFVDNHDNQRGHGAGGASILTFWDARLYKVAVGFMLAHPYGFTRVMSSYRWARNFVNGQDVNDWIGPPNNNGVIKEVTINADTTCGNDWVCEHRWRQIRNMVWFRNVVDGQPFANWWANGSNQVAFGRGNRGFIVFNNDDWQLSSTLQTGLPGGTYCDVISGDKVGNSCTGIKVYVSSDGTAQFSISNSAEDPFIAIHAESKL
Experimental: α-Amylase inhibition was determined by an assay modified by Kwon, Apostolidis & Shetty. A total of 40 μL of sample and 40 μL of 0.02 M sodium phosphate buffer (pH 6.9 with 0.006 M sodium chloride) containing α-amylase solution (Porcine pancreatic α-amylase) (0.5 mg/mL) were incubated at 25 °C for 10 min. After pre-incubation, 40 μL of a 1% starch solution in 0.02 M sodium phosphate buffer (pH 6.9 with 0.006 M sodium chloride) was added to each tube at 5 s intervals. The reaction mixtures were then incubated at 25 °C for 10 min. The reaction was stopped with 100 μL of dinitrosalicylic acid color reagent. The test tubes were then incubated in a boiling water bath for 5 min and cooled to room temperature. The reaction mixture was then diluted after adding 900 μL of distilled water, and the absorbance was measured at 540 nm. […] All reactions were carried out in triplicate.

IC50 [1] [µM] | IC50 [2] [µM] | Molecule
14.2 ± 0.1 | 16.1 ± 0.01 | O=[N+]([O-])c1ccccc1/C=N/NC(=S)NN=C(CSc1nc2ccccc2[nH]1)c1ccc(-c2ccccc2)cc1 [derivative 7, N′-(2-((1H-Benzo[d]imidazol-2-yl)thio)-1-([1,1′-biphenyl]-4-yl)ethylidene)-2-((E)-2-nitrobenzylidene)hydrazine-1-carbothiohydrazide]
17.2 ± 0.1 | 15.2 ± 0.2 | O=[N+]([O-])c1ccc(/C=N/NC(=S)NN=C(CSc2nc3ccccc3[nH]2)c2ccc(-c3ccccc3)cc2)cc1 [derivative 8, N′-(2-((1H-Benzo[d]imidazol-2-yl)thio)-1-([1,1′-biphenyl]-4-yl)ethylidene)-2-((E)-4-nitrobenzylidene)hydrazine-1-carbothiohydrazide]
14.2 ± 0.2 | 13.1 ± 0.1 | O=[N+]([O-])c1cccc(/C=N/NC(=S)NN=C(CSc2nc3ccccc3[nH]2)c2ccc(-c3ccccc3)cc2)c1 [derivative 9, N′-(2-((1H-Benzo[d]imidazol-2-yl)thio)-1-([1,1′-biphenyl]-4-yl)ethylidene)-2-((E)-3-nitrobenzylidene)hydrazine-1-carbothiohydrazide]
11.2 ± 0.1 | 10.2 ± 0.02 | Oc1ccc(/C=N/NC(=S)NN=C(CSc2nc3ccccc3[nH]2)c2ccc(-c3ccccc3)cc2)cc1 [derivative 10, N′-(2-((1H-Benzo[d]imidazol-2-yl)thio)-1-([1,1′-biphenyl]-4-yl)ethylidene)-2-((E)-4-hydroxybenzylidene)hydrazine-1-carbothiohydrazide]
4.2 ± 0.1 | 3.1 ± 0.1 | O=[N+]([O-])c1ccccc1/C=N/NC(=S)NN=C(CSc1nc2ccccc2[nH]1)c1ccc(Cl)c(Cl)c1 [derivative 11, N′-(2-((1H-Benzo[d]imidazol-2-yl)thio)-1-(3,4-dichlorophenyl)ethylidene)-2-((E)-2-nitrobenzylidene)hydrazine-1-carbothiohydrazide]
2.2 ± 0.2 | 1.1 ± 0.2 | Oc1ccc(/C=N/NC(=S)NN=C(CSc2nc3ccccc3[nH]2)c2ccc(Cl)c(Cl)c2)cc1 [derivative 12, N′-(2-((1H-Benzo[d]imidazol-2-yl)thio)-1-(3,4-dichlorophenyl)ethylidene)-2-((E)-4-hydroxybenzylidene)hydrazine-1-carbothiohydrazide]
3.1 ± 0.2 | 2.1 ± 0.2 | O=[N+]([O-])c1ccc(/C=N/NC(=S)NN=C(CSc2nc3ccccc3[nH]2)c2ccc(Cl)c(Cl)c2)cc1 [derivative 13, N′-(2-((1H-Benzo[d]imidazol-2-yl)thio)-1-(3,4-dichlorophenyl)ethylidene)-2-((E)-4-nitrobenzylidene)hydrazine-1-carbothiohydrazide]
7.1 ± 0.01 | 6.1 ± 0.2 | O=[N+]([O-])c1cccc(/C=N/NC(=S)NN=C(CSc2nc3ccccc3[nH]2)c2ccc(Cl)c(Cl)c2)c1 [derivative 14, N′-(2-((1H-Benzo[d]imidazol-2-yl)thio)-1-(3,4-dichlorophenyl)ethylidene)-2-((E)-3-nitrobenzylidene)hydrazine-1-carbothiohydrazide]
18.1 ± 0.2 | 17.1 ± 0.01 | O=[N+]([O-])c1ccccc1/C=N/NC(=S)NN=C(CSc1nc2ccccc2[nH]1)c1ccc(Br)cc1 [derivative 15, N′-(2-((1H-Benzo[d]imidazol-2-yl)thio)-1-(4-bromophenyl)ethylidene)-2-((E)-2-nitrobenzylidene)hydrazine-1-carbothiohydrazide]
21.1 ± 0.01 | 20.1 ± 0.2 | Oc1ccc(/C=N/NC(=S)NN=C(CSc2nc3ccccc3[nH]2)c2ccc(Br)cc2)cc1 [derivative 16, N′-(2-((1H-Benzo[d]imidazol-2-yl)thio)-1-(4-bromophenyl)ethylidene)-2-((E)-4-hydroxybenzylidene)hydrazine-1-carbothiohydrazide]
16.1 ± 0.01 | 15.1 ± 0.2 | O=[N+]([O-])c1ccc(/C=N/NC(=S)NN=C(CSc2nc3ccccc3[nH]2)c2ccc(Br)cc2)cc1 [derivative 17, N′-(2-((1H-Benzo[d]imidazol-2-yl)thio)-1-(4-bromophenyl)ethylidene)-2-((E)-4-nitrobenzylidene)hydrazine-1-carbothiohydrazide]
14.1 ± 0.01 | 13.2 ± 0.2 | O=[N+]([O-])c1cccc(/C=N/NC(=S)NN=C(CSc2nc3ccccc3[nH]2)c2ccc(Br)cc2)c1 [derivative 18, N′-(2-((1H-Benzo[d]imidazol-2-yl)thio)-1-(4-bromophenyl)ethylidene)-2-((E)-3-nitrobenzylidene)hydrazine-1-carbothiohydrazide]
1.3 ± 0.2 | 1.2 ± 0.2 | Fc1cccc(/C=N/NC(=S)N/N=C(\CSc2nc3ccccc3[nH]2)c2cccc(F)c2)c1 [derivative 19]
22.1 ± 0.2 | 21.1 ± 0.01 | O=[N+]([O-])c1cccc(/C=N/NC(=S)N/N=C(\CSc2nc3ccccc3[nH]2)c2ccccc2)c1 [derivative 21, N′-((Z)-2-((1H-Benzo[d]imidazol-2-yl)thio)-1-phenylethylidene)-2-((E)-3-nitrobenzylidene)hydrazine-1-carbothiohydrazide]

Molecule | IC50 [1] [µM] | IC50 [2] [µM]
N′-((Z)-2-((1H-Benzo[d]imidazol-2-yl)thio)-1-(3-fluorophenyl)ethylidene)-2-((E)-2-methyl-4-nitrobenzylidene)hydrazine-1-carbothiohydrazide [derivative 20] | 1.6 ± 0.2 | 1.4 ± 0.01
